Assay results from patent US12419875B2, “Use of Axitinib and analogs thereof in preparing blood-brain barrier permeability regulator” (ZHEJIANG UNIVERSITY, priority 2018, dated 2025).

Assays:
[1] = system: pathological blood-brain barrier; test: Evans blue permeation into the brain after a single dose, model of Parkinson's disease; format: in vivo, C57/BL6 mice; conditions: Parkinson's disease mice, 10 mg/kg tail vein, Evans blue after 24 hours; vs Parkinson's control; FIGS. 24 and 25
[2] = system: pathological blood-brain barrier (bEnd.3 cells with tumor cell culture); test: Tumor cell culture co-incubated with bEnd.3 cells (U87MG removed), FITC-dextran transmembrane transport; format: cell-based; conditions: tumor cell culture kept, 10 μM, 24 hours, FIG. 16
Description: FIG. 16: Co-incubation of a tumor cell culture and bEnd.3 cells in vitro, and FITC-dextran transmembrane transport efficiency. A Transwell model of co-incubation of brain microvascular endothelial cells bEnd.3 and glioma cells U87 MG simulates a pathological blood-brain barrier. Once a pathological blood-brain barrier model was formed, U87MG glioma cells in the outer chamber of Transwell were removed, while the tumor cell cultures were remained. Axitinib (10 μM) and an Axitinib analog of phosphatidylinositol kinase (PI3K) inhibitor LY294002 (10 μM) were added to the Transwell chamber. After 24 hours, the Transwell chamber and the outer chamber were cleaned with PBS, and a FITC-dextran solution in HBSS was added to the Transwell chamber, and was allowed to act for 4 hours. The result as shown in the figure was the FITC-dextran concentration of the Transwell outer chamber as detected by a fluorescence spectrophotometer. […]
The physiological blood-brain barrier and the pathological blood-brain barrier as constructed in Method 1 and Method 2 in the Example 1 were used as models, respectively. […] After the cells were incubated at 37° C. in the dark for 4 hours, concentration of FITC-dextran transferred to the outer chamber via the Transwell chamber was detected with a fluorescence spectrophotometer.

[3] = system: pathological blood-brain barrier (bEnd.3 cells co-incubated with U87 MG glioma cells); test: Pathological blood-brain barrier Transwell model, FITC-dextran transmembrane transport; format: cell-based; conditions: 10 μM, 24 hours, then FITC-dextran 10 kDa for 4 hours; FIG. 11
Description: A Transwell model of co-incubation of brain microvascular endothelial cells bEnd.3 and glioma cells U87 MG simulates a pathological blood-brain barrier. Axitinib (10 μM), an Axitinib analog of phosphatidylinositol kinase (PI3K) inhibitor LY294002 (10 μM), protein kinase B (AKT) agonist SC79 (10 μM) were added into the Transwell chamber. After 24 hours, the Transwell chamber and the outer chamber were cleaned with PBS, and a solution of FITC-dextran in HBSS was added to the Transwell chamber, and was left for 4 hours. […] A physiological blood-brain barrier simulated by a Transwell model of brain microvascular endothelial cell bEnd.3 was used as a positive control (n=3).
U87 MG glioma cells were used as brain tumor model cells. 1.5 mL suspension of well-grown U87 MG cell suspension was inoculated in a 12-well plate at a cell density of 2×10^5/well. Incubation was continued at 37° C. and 5% CO2 until the cells adhere. […]

Claudin-5/Occludin = test: Pathological blood-brain barrier Transwell model, Claudin-5/Occludin immunofluorescence; format: cell-based; conditions: 10 μM, 24 hours; FIG. 12
Description: A Transwell model of co-incubation of brain microvascular endothelial cells bEnd.3 and glioma cells U87 MG simulates a pathological blood-brain barrier. Axitinib (10 μM), an Axitinib analog of phosphatidylinositol kinase (PI3K) inhibitor LY294002 (10 μM), protein kinase B (AKT) agonist SC79 (10 μM) were added into the Transwell chamber. After 24 hours, immunofluorescent stain was performed on bEnd.3 cells on the Transwell chamber membrane. A physiological blood-brain barrier simulated by a Transwell model of brain microvascular endothelial cell bEnd.3 was used as a positive control.
U87 MG glioma cells were used as brain tumor model cells. 1.5 mL suspension of well-grown U87 MG cell suspension was inoculated in a 12-well plate at a cell density of 2×10^5/well. Incubation was continued at 37° C. and 5% CO2 until the cells adhere. Then, the physiological blood-brain barrier as constructed by Method 1 in the Example 1, i.e., the Transwell chamber with bEnd.3 cells grown, was transferred to the 12-well plate with U87 MG cells grown. Co-culture was further continued for 24 hours to obtain a cell model of pathological blood-brain barrier.

In the case of `CNC(=O)c1ccccc1Sc1ccc2c(/C=C/c3ccccn3)n[nH]c2c1` [Axitinib, N-methyl-2-((3-((1E)-2-(pyridine-2-yl)ethenyl)-1H-indazol-6-yl)sulfanyl)benzamide], the “Amount of Evans blue permeated into the brain” value [1] was “the amount of Evans blue permeated into the brain is reduced”, the “FITC-dextran transmembrane transport (blood-brain barrier permeability)” value [2] was “blood-brain barrier permeability is reduced” and the “FITC-dextran transmembrane transport (blood-brain barrier permeability)” value [3] was “reduce blood-brain barrier permeability”. For the same molecule, the “Expression of tight junction protein Claudin-5/Occludin” value (Claudin-5/Occludin) was “reduce the degree to which pathological blood-brain barrier tight junction protein of Claudin-5/Occludin is down-regulated”.
